Experimental data: ChEMBL document CHEMBL1201862, “PubChem BioAssay data set” (2004)
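A five-concentration, 48-hour dose response in 96-well plates underlies each endpoint, interpolated linearly between surrounding concentrations. GI50: concentration for 50% inhibition of growth.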 The source made the active and inactive calls. Cut-off read from the data, not from the text of the source: active = GI50 up to about 1.1 µM and inactive = higher.

What was measured:
Assay in all cases: DTP human tumour cell line panel, 48 h
786-0 = system: 786-0
BT-549 = system: BT-549
CCRF-CEM = system: CCRF-CEM
COLO 205 = system: COLO 205
HCT-15 = system: HCT-15
HOP-62 = system: HOP-62
HT-29 = system: HT-29
Hs-578T = system: Hs-578T
MCF7 = system: MCF7
MDA-MB-435 = system: MDA-MB-435
MOLT-4 = system: MOLT-4
NCI-H226 = system: NCI-H226
RPMI-8226 = system: RPMI-8226
SF-295 = system: SF-295
SK-MEL-2 = system: SK-MEL-2
SK-OV-3 = system: SK-OV-3
SN12C = system: SN12C
T47D = system: T47D
A498 = system: A498
HOP-92 = system: HOP-92

SMILES	GI50 (786-0)	GI50 (BT-549)	GI50 (CCRF-CEM)	GI50 (COLO 205)	GI50 (HCT-15)	GI50 (HOP-62)	GI50 (HT-29)	GI50 (Hs-578T)	GI50 (MCF7)	GI50 (MDA-MB-435)	GI50 (MOLT-4)	GI50 (NCI-H226)	GI50 (RPMI-8226)	GI50 (SF-295)	GI50 (SK-MEL-2)	GI50 (SK-OV-3)	GI50 (SN12C)	GI50 (T47D)	GI50 (A498)	GI50 (HOP-92)
Clc1cccc(Cl)c1C1SCc2nc3cc4ccccc4cc3n21 (stereo not given)	> 100 µM (inactive)	> 100 µM (inactive)	> 100 µM (inactive)	> 100 µM (inactive)	> 100 µM	> 100 µM (inactive)	> 100 µM (inactive)	> 100 µM (inactive)	> 100 µM (inactive)	> 100 µM (inactive)	> 100 µM (inactive)	> 100 µM (inactive)	> 100 µM (inactive)	> 100 µM (inactive)	> 100 µM (inactive)	> 100 µM (inactive)	> 100 µM (inactive)	> 100 µM (inactive)		
Cc1c2c(c(O)c3c(O)cccc13)C(=O)C1(O)C(=O)C(C(=O)NCNc3ccc(C(N)=O)cn3)=C(O)C(N(C)C)C1C2 (stereo not given)	5.52 µM (inactive)	3.48 µM (inactive)	2.94 µM (inactive)	6.28 µM (inactive)	2.8 µM	6 µM (inactive)	3.89 µM (inactive)		9.27 µM (inactive)	3.69 µM (inactive)	2.74 µM (inactive)	2.94 µM (inactive)	1.83 µM (inactive)	2.87 µM (inactive)	6.95 µM (inactive)	3.1 µM (inactive)	4.78 µM (inactive)	5.61 µM (inactive)	2.51 µM (inactive)	2.01 µM (inactive)
CC(=O)Oc1cc(S(=O)(=O)Nc2n[nH]c(Nc3ccc(C)cc3)n2)c(S)cc1Cl	> 100 µM (inactive)	> 100 µM (inactive)	94.8 µM (inactive)	> 100 µM (inactive)	> 100 µM		> 100 µM (inactive)	79.3 µM (inactive)		> 100 µM (inactive)	83.2 µM (inactive)		> 100 µM (inactive)	> 100 µM (inactive)	> 100 µM (inactive)		> 100 µM (inactive)	> 100 µM (inactive)	> 100 µM (inactive)	> 100 µM (inactive)
CCCC(=O)NC(C(=O)OCC)(N1CCOCC1)C(F)(F)F (stereo not given)	> 100 µM (inactive)	> 100 µM (inactive)	> 100 µM (inactive)	> 100 µM (inactive)	> 100 µM	> 100 µM (inactive)	> 100 µM (inactive)	> 100 µM (inactive)	> 100 µM (inactive)	> 100 µM (inactive)	> 100 µM (inactive)	> 100 µM (inactive)	> 100 µM (inactive)	> 100 µM (inactive)	> 100 µM (inactive)	> 100 µM (inactive)	> 100 µM (inactive)	> 100 µM (inactive)		> 100 µM (inactive)
CCOC(=O)Cc1nc2nn(Cc3ccccc3)cc2c(=O)[nH]1	> 100 µM (inactive)	> 100 µM (inactive)	> 100 µM (inactive)	> 100 µM (inactive)	> 100 µM	> 100 µM (inactive)	> 100 µM (inactive)		> 100 µM (inactive)	> 100 µM (inactive)	> 100 µM (inactive)	> 100 µM (inactive)	> 100 µM (inactive)	> 100 µM (inactive)		> 100 µM (inactive)	> 100 µM (inactive)	> 100 µM (inactive)	19.3 µM (inactive)	
O=C(NNC(=O)c1ccccc1SSc1ccccc1C(=O)NNC(=O)c1ccccc1S)c1ccccc1S	11.4 µM (inactive)	13.5 µM (inactive)	1.29 µM (inactive)	36.4 µM (inactive)	9.16 µM	25.9 µM (inactive)	30.3 µM (inactive)	0.404 µM (active)	15.2 µM (inactive)	16.1 µM (inactive)	6 µM (inactive)	42.4 µM (inactive)	43.1 µM (inactive)	10.6 µM (inactive)	23.7 µM (inactive)	46.5 µM (inactive)	18.5 µM (inactive)	9.16 µM (inactive)		39.2 µM (inactive)
O=P1(Oc2ccccc2)N=P(c2ccccc2)(c2ccccc2)C=C(c2ccc(Cl)cc2)N1 (stereo not given)	13.4 µM (inactive)	16 µM (inactive)	9.38 µM (inactive)	5.15 µM (inactive)	9.84 µM	16.4 µM (inactive)	4.29 µM (inactive)	16.7 µM (inactive)	2.45 µM (inactive)	4.44 µM (inactive)	5.18 µM (inactive)		3.03 µM (inactive)	6.92 µM (inactive)	13.5 µM (inactive)	13.2 µM (inactive)	16.6 µM (inactive)	5.19 µM (inactive)		9.18 µM (inactive)
Cc1ccc2nc(Cl)c(/C=N/N3C(=O)/C(=C/c4cccc([N+](=O)[O-])c4)N=C3c3ccccc3)cc2c1	> 100 µM (inactive)	> 100 µM (inactive)	25.9 µM (inactive)	38.7 µM (inactive)	42.2 µM	50.2 µM (inactive)	45.3 µM (inactive)	94.6 µM (inactive)	20.3 µM (inactive)	20.7 µM (inactive)	29.2 µM (inactive)		31.3 µM (inactive)	40.9 µM (inactive)	22.2 µM (inactive)	94.2 µM (inactive)	35.7 µM (inactive)	59.8 µM (inactive)	7.71 µM (inactive)	46.3 µM (inactive)
